Paper PMC11678797, “A Repurposed Drug Selection Pipeline to Identify CNS-Penetrant Drug Candidates for Glioblastoma” (Pharmaceuticals, 2024)
Read-outs that look alike come from different tables or passages of the source.

What was measured:
[1] = Pharmacokinetics of omacetaxine in orthotopic glioblastoma PDX and naïve NOD/SCID mice (LC-MS/MS of plasma, brain, liver); format: in vivo, mouse
Method: An amount of 10 μL medium samples was vortex-mixed with 30 μL of acetonitrile: formic acid (100:1 v/v) containing 100 nM RO-3306 Internal Standard). After centrifugation, the supernatant was 5-fold diluted in water. OMA concentrations were measured using an LC-MS/MS system that consisted of an UltiMate 3000 LC System (Dionex, Sunnyvale, CA, USA) and an API 4000 mass spectrometer (Sciex, Framingham, MA, USA). Samples were analyzed using a ZORBAX Extend-C18 column (Agilent, Santa Clara, CA, USA), preceded by a Security-guard C18 pre-column (Phenomenex, Utrecht, The Netherlands). Elution was performed using a mixture of mobile phase A (0.1% formic acid in water (v/v)) and mobile phase B (methanol) in a 5 min gradient from 20% to 95% B, followed by 95% B that was maintained for 3 min and then re-equilibrated at 20% B. Multiple reaction monitoring parameters were 546.6/298.1 (OMA) and 352.1/186.0 (RO-3306).
Non-obese diabetic severe combined immunodeficient (NOD/SCID) female mice 6–8 weeks of age were used for this study. All experiments were ethically approved by the local Animal Experiments Committee. Patient-derived glioblastoma cell lines were cultured under serum-free conditions prior to injection into the mice. Mice were stereotactically injected with GS607, GS832 (both 2.5 × 10^5 in 5 μL) or GBM8 (1 × 10^5 in 3 μL) in the right striatum 1.0 mm anteroposterior (AP), 2.0 mm medio lateral (ML) and −2.5 mm dorsal ventral (DV) of bregma suture under aseptic conditions. Mice were monitored daily for signs of persistent abnormal behavior and/or breathing, weight loss >20% and development of neurological symptoms such as convulsions, seizures and/or hemiparesis. Mice were euthanized and the mouse brains harvested for histological and LC/MS/MS analysis.
A single dose of 1.5 mg/kg of OMA was administered s.c. to glioblastoma-bearing NOD/SCID and naïve non-tumor-bearing mice. Mice received OMA prior to the timepoint drug delivery experiment, ensuring the presence of significant tumor masses. For GS607, this was at 78 days; for GS832 at 90 days; and for GBM8 at 46 days post-tumor implantation, based on previous survival experiments. Blood samples were collected at 15 min, 30 min, 60 min, 120 min and 240 min via the tail vein and/or submandibular vein and placed in EDTA tubes. Mice were euthanized at 60 min, 120 min or 240 min with cervical dislocation. Brains and livers were surgically collected and snap-frozen in liquid nitrogen (N2). To preserve the drug stability in plasma mouse blood, samples were centrifuged immediately upon collection. Plasma was separated by centrifugation at 3500 rpm at 4 °C for 15 min. Both plasma and tissue samples were stored at −80 °C until LC-MS/MS analysis.

murine P-gp (Abcb1a) = molecular target: T1, murine P-gp (Abcb1a) (Mus musculus, UniProt P21447); experiment: Concentration equilibrium transport assay (CETA), LLC-PK1 cells transduced with murine Abcb1a; format: in vitro ADME; settings: omacetaxine 100 nM, up to 4 h
T1 construct: expressed in transfected cells; host or cells: LLC-PK1 (pig kidney) cells transduced with murine Abcb1a (LLC-Mdr1a)
Method: In vitro transport studies were performed using the LLC pig kidney cell line (LLC-PK1) and sub-lines transduced with murine Abcb1a (LLC-Mdr1a) or human ABCB1 (LLC-MDR1). Similarly, in vitro transport studies were conducted in the parental Madin–Darby canine kidney (MDCK) type II cell line (MDCK-Parent) and murine Abcg2 (MDCK-Bcrp1) or human ABCG2 (MDCK-BCRP) transduced sublines. Concentration equilibrium transport assays (CETA) were performed as previously described. Briefly, cells were grown on polycarbonate membrane filters (3.0 µm pores, 24 mm diameter; Costar Corning, NY, USA) for 4 days. Next, 2 mL of MEM medium containing 10% FCS and omacetaxine (100 nM) was added to both the apical and basal compartments. Then, [14C]-inulin ([…]) was added basolateral to check the membrane integrity. Zosuquidar 1 μM was added to all wells containing MDCK cells to inhibit endogenous (canine) ABCB1. […] The integrity of the membrane was checked by taking 20 μL samples from both apical and basolateral sides for radioactivity counting. […] OMA concentrations were measured using an LC-MS/MS system that consisted of an UltiMate 3000 LC System (Dionex, Sunnyvale, CA, USA) and an API 4000 mass spectrometer (Sciex, Framingham, MA, USA).

T1 sequence (P21447 whole entry): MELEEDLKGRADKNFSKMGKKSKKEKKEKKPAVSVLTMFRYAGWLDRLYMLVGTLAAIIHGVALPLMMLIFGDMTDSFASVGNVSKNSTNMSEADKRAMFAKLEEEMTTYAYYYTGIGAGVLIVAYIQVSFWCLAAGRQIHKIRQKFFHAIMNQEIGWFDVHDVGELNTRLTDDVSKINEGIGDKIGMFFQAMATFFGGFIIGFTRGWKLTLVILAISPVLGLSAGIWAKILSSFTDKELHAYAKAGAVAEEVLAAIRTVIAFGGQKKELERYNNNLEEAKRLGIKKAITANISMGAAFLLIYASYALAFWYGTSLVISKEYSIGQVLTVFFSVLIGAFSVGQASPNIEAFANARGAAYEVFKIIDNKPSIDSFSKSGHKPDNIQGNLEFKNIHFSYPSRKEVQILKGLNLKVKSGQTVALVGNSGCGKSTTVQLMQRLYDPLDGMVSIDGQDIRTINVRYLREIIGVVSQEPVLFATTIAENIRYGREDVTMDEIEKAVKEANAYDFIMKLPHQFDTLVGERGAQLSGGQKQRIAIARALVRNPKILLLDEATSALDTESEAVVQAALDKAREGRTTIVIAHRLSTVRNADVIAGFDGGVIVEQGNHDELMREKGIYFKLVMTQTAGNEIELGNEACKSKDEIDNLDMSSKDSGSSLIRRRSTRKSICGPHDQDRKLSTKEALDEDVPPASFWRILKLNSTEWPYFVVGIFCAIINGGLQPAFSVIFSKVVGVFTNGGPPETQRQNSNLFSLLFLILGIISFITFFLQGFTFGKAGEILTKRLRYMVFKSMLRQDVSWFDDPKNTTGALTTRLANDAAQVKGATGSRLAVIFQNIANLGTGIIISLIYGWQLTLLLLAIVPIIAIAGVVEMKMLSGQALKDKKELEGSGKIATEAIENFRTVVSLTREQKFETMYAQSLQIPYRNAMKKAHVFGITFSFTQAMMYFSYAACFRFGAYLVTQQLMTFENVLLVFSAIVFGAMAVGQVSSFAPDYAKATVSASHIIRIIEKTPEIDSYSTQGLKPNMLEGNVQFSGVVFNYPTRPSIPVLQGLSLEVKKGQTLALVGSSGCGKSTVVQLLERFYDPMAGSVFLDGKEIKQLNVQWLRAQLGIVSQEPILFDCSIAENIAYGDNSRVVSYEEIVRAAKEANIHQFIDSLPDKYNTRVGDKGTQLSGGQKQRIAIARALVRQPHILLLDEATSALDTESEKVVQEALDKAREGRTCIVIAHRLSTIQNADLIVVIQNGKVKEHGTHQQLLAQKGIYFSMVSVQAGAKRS

- concentration at 240 min ([1]; female, NOD/SCID, mouse, brain, right hemisphere (tumor bearing), sc, 1.5 mg/kg, GS832-PDX, 240 min, single s.c. dose 1.5 mg/kg, n = 5, read-out: [Brain] ± SD, right hemisphere (tumor bearing)): 11.6 ± 6.4 ng/g
- Kp at 60 min ([1]; female, NOD/SCID, mouse, brain, sc, 1.5 mg/kg, GBM8 PDX, 60 min, single s.c. dose 1.5 mg/kg, read-out: [Brain]/[Plasma] Ratio ± SD): 0.11
- Kp at 60 min ([1]; female, NOD/SCID, mouse, brain, sc, 1.5 mg/kg, GS607-PDX, 60 min, single s.c. dose 1.5 mg/kg, n = 2 blood samples, read-out: [Brain]/[Plasma] Ratio ± SD): 0.23
- Kp at 60 min ([1]; female, NOD/SCID, mouse, brain, sc, 1.5 mg/kg, GS832-PDX, 60 min, single s.c. dose 1.5 mg/kg, read-out: [Brain]/[Plasma] Ratio ± SD): 0.1
- Kp at 120 min ([1]; female, NOD/SCID, mouse, brain, sc, 1.5 mg/kg, GS832-PDX, 120 min, single s.c. dose 1.5 mg/kg, read-out: [Brain]/[Plasma] Ratio ± SD): 0.37 ± 0.24
- Kp at 240 min ([1]; female, NOD/SCID, mouse, brain, sc, 1.5 mg/kg, GS832-PDX, 240 min, single s.c. dose 1.5 mg/kg, read-out: [Brain]/[Plasma] Ratio ± SD): 0.5
- Kp at 60 min ([1]; female, NOD/SCID, mouse, brain, sc, 1.5 mg/kg, naïve non-tumor-bearing mice, 60 min, single s.c. dose 1.5 mg/kg, read-out: [Brain]/[Plasma] Ratio ± SD): 0.05 ± 0.01
- Kp at 60 min ([1]; female, NOD/SCID, mouse, brain, subcutaneous, 1.5 mg/kg, stated as at 60 min, range across PDX models, read-out: B/P ratio across the PDX models): 0.12 to 0.5
- concentration at 60 min ([1]; female, NOD/SCID, mouse, liver, sc, 1.5 mg/kg, GBM8 PDX, 60 min, single s.c. dose 1.5 mg/kg, n = 6, read-out: [Liver] ± SD): 998 ± 254 ng/g
- concentration at 60 min ([1]; female, NOD/SCID, mouse, liver, sc, 1.5 mg/kg, GS607-PDX, 60 min, single s.c. dose 1.5 mg/kg, n = 4, read-out: [Liver] ± SD): 1650 ± 163 ng/g
- concentration at 60 min ([1]; female, NOD/SCID, mouse, liver, sc, 1.5 mg/kg, GS832-PDX, 60 min, single s.c. dose 1.5 mg/kg, n = 5, read-out: [Liver] ± SD): 680 ± 156 ng/g
- concentration at 120 min ([1]; female, NOD/SCID, mouse, liver, sc, 1.5 mg/kg, GS832-PDX, 120 min, single s.c. dose 1.5 mg/kg, n = 5, read-out: [Liver] ± SD): 338 ± 94 ng/g
- concentration at 240 min ([1]; female, NOD/SCID, mouse, liver, sc, 1.5 mg/kg, GS832-PDX, 240 min, single s.c. dose 1.5 mg/kg, n = 5, read-out: [Liver] ± SD): 190 ± 48 ng/g
- concentration at 60 min ([1]; female, NOD/SCID, mouse, liver, sc, 1.5 mg/kg, naïve non-tumor-bearing mice, 60 min, single s.c. dose 1.5 mg/kg, n = 2, read-out: [Liver] ± SD): 715.9 ± 4.6 ng/g
- concentration at 60 min ([1]; female, NOD/SCID, mouse, plasma, sc, 1.5 mg/kg, GBM8 PDX, 60 min, single s.c. dose 1.5 mg/kg, n = 6, read-out: [Plasma] ± SD): 391 ± 58 ng/mL
- concentration at 60 min ([1]; female, NOD/SCID, mouse, plasma, sc, 1.5 mg/kg, GS607-PDX, 60 min, single s.c. dose 1.5 mg/kg, n = 2 blood samples, read-out: [Plasma] ± SD): 88 ± 9 ng/mL
- concentration at 15 min ([1]; female, NOD/SCID, mouse, plasma, sc, 1.5 mg/kg, GS832-PDX NOD/SCID mice, single s.c. dose 1.5 mg/kg, 15 min (Table 1), read-out: [Plasma] ± SD): 396 ± 59 ng/mL
- concentration at 30 min ([1]; female, NOD/SCID, mouse, plasma, sc, 1.5 mg/kg, GS832-PDX NOD/SCID mice, single s.c. dose 1.5 mg/kg, 30 min (Table 1), read-out: [Plasma] ± SD): 282 ± 65.4 ng/mL
- concentration at 60 min ([1]; female, NOD/SCID, mouse, plasma, sc, 1.5 mg/kg, GS832-PDX NOD/SCID mice, single s.c. dose 1.5 mg/kg, 60 min (Table 1, n = 9), read-out: [Plasma] ± SD): 166 ± 29 ng/mL
- concentration at 120 min ([1]; female, NOD/SCID, mouse, plasma, sc, 1.5 mg/kg, GS832-PDX NOD/SCID mice, single s.c. dose 1.5 mg/kg, 120 min (Table 1, n = 10), read-out: [Plasma] ± SD): 57.8 ± 10.8 ng/mL
- concentration at 240 min ([1]; female, NOD/SCID, mouse, plasma, sc, 1.5 mg/kg, GS832-PDX NOD/SCID mice, single s.c. dose 1.5 mg/kg, 240 min (Table 1), read-out: [Plasma] ± SD): 24 ± 3 ng/mL
- concentration at 60 min ([1]; female, NOD/SCID, mouse, plasma, sc, 1.5 mg/kg, GS832-PDX, 60 min, single s.c. dose 1.5 mg/kg, n = 5 (Table 2), read-out: [Plasma] ± SD): 186 ± 21.1 ng/mL
- concentration at 120 min ([1]; female, NOD/SCID, mouse, plasma, sc, 1.5 mg/kg, GS832-PDX, 120 min, single s.c. dose 1.5 mg/kg, n = 5 (Table 2), read-out: [Plasma] ± SD): 55.6 ± 10.7 ng/mL
- concentration at 240 min ([1]; female, NOD/SCID, mouse, plasma, sc, 1.5 mg/kg, GS832-PDX, 240 min, single s.c. dose 1.5 mg/kg, n = 5 (Table 2), read-out: [Plasma] ± SD): 23.5 ± 0.7 ng/mL
- concentration at 60 min ([1]; female, NOD/SCID, mouse, plasma, sc, 1.5 mg/kg, naïve non-tumor-bearing mice, 60 min, single s.c. dose 1.5 mg/kg, n = 2, read-out: [Plasma] ± SD): 224 ± 12 ng/mL
- Tmax ([1]; female, NOD/SCID, mouse, plasma, sc, GS832 tumor-bearing mice, single s.c. dose 1.5 mg/kg, read-out: time of peak concentration in plasma (converted)): 15 min
- half-life ([1]; female, NOD/SCID, mouse, sc, plasma, GS832 tumor-bearing mice, single s.c. dose 1.5 mg/kg): 50 min
- [Brain] ± SD, right hemisphere (non-tumor-bearing) ([1]; naïve non-tumor-bearing mice, 60 min, single s.c. dose 1.5 mg/kg, n = 2, 1.5 mg/kg): 16.4 ± 2.9 ng/g
- substrate of P-gp (translocation basolateral to apical) (murine P-gp (Abcb1a)): weak substrate
SMILES: COC(=O)C[C@](O)(CCCC(C)(C)O)C(=O)O[C@@H]1C(OC)=C[C@]23CCCN2CCc2cc4c(cc2[C@H]13)OCO4 [OMA, Omacetaxine mepesuccinate]
